Test results reported in PubChem BioAssay (NCI).
Where “and” joins values, the source holds several entries; their conditions need not be identical. Identical values can stand only once.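 Exposure lasted 48 hours, with cells grown in 96-well plates and compounds tested at five concentrations. The concentration for 50% growth inhibition is given as GI50. TGI is the concentration that stops growth completely.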

What was measured:
Assay in all cases: NCI tumour cell line growth inhibition, 48 h
MDA-MB-435 = system: MDA-MB-435
ACHN renal = system: ACHN renal
IGROV1 ovarian = system: IGROV1 ovarian
MOLT-4 leukemia = system: MOLT-4 leukemia
SK-MEL-5 melanoma = system: SK-MEL-5 melanoma
HOP-62 NSCLC = system: HOP-62 NSCLC
UO-31 renal = system: UO-31 renal
HCT-15 colon = system: HCT-15 colon

| SMILES | GI50 (MDA-MB-435) | TGI (MDA-MB-435) | GI50 (ACHN renal) | TGI (ACHN renal) | GI50 (IGROV1 ovarian) | TGI (IGROV1 ovarian) | GI50 (MOLT-4 leukemia) | TGI (MOLT-4 leukemia) | GI50 (SK-MEL-5 melanoma) | TGI (SK-MEL-5 melanoma) | GI50 (HOP-62 NSCLC) | TGI (HOP-62 NSCLC) | GI50 (UO-31 renal) | TGI (UO-31 renal) | GI50 (HCT-15 colon) | TGI (HCT-15 colon) |
| --- | --- | --- | --- | --- | --- | --- | --- | --- | --- | --- | --- | --- | --- | --- | --- | --- |
| Oc1c(CN2CCCC2)cc(COCc2ccc(Br)cc2)c2cccnc12 | 1.49 µM | 14.4 µM | 0.241 µM | 1.97 µM | 0.793 µM | 5.2 µM | 0.495 µM | 2.67 µM | 0.329 µM | 1.3 µM | 0.362 µM | 2.3 µM | 0.0569 µM | 0.903 µM | 0.0475 µM | 1.72 µM |
| CC(C)(C#N)c1cc(F)cc(C(=O)Nc2cc(Nc3ncccc3-c3ncnc4nc[nH]c34)ccc2F)c1 | 0.307 µM | > 10 µM | 1.85 µM | > 10 µM | 0.684 µM | > 10 µM | 4.27 µM | > 10 µM | 0.635 µM | > 10 µM | 0.475 µM | > 10 µM | 0.287 µM | 3.64 µM | 3.59 µM | > 10 µM |
| CNC(=O)c1ccc2cc(C3(O)CCn4cncc43)ccc2c1 (stereo unspecified) | > 100 µM | > 100 µM | > 100 µM | > 100 µM | > 100 µM | > 100 µM | > 100 µM | > 100 µM | > 100 µM | > 100 µM | > 100 µM | > 100 µM | > 100 µM | > 100 µM | > 100 µM | > 100 µM |
| c1ccc(-c2cc(C3CO3)c3ccccc3n2)cc1 (stereo unspecified) |  | 35.5 µM |  | 32.8 µM |  | 36.6 µM |  | 49.7 µM |  | 31.4 µM |  | 67.5 µM |  | 3.51 µM |  | 40.7 µM |
| Cc1noc(C)c1-c1cc(O)cc(C(O)c2ccccc2)c1 (stereo unspecified) | 3.48 µM | > 100 µM | 4.76 µM | > 100 µM | 23.2 µM | > 100 µM | 17.9 µM | 80.7 µM | 5.95 µM | 29.5 µM | 4.89 µM | > 100 µM | 1.08 µM | > 100 µM | 3.52 µM | > 100 µM |
| COc1ccc2c(c1)C(=O)C(=O)c1cc(O)c(OC)c(OC)c1-2 | 0.291 µM | 0.272 µM and 0.807 µM | 1.97 µM | 1.59 µM and 3.38 µM | 1.71 µM | 1.56 µM and 3.08 µM | 2.38 µM | 0.746 µM and 5.74 µM | 1.68 µM | 1.53 µM and 3.07 µM | 1.15 µM | 1.72 µM and 2.58 µM |  | 1.7 µM | 1.73 µM | 1.78 µM and 3.53 µM |
| O=C(Nc1cccc(Oc2nnc(Cl)c3ccccc23)c1)Nc1ccc(Cl)c(C(F)(F)F)c1 | 0.791 µM | 3.24 µM | 0.711 µM | 3.8 µM | 1.04 µM | 5.85 µM | 0.494 µM | 4.18 µM | 0.985 µM | 3.25 µM | 1.98 µM | 5.75 µM | 0.176 µM | 4.19 µM | 0.765 µM | 3.53 µM |
| CN1CCN(c2ccc3nc(-c4c(N)c5c(F)cccc5[nH]c4=O)[nH]c3c2)CC1 | 0.974 µM and 0.535 µM and 1.08 µM | 2.34 µM and 1.85 µM and 2.61 µM | 0.335 µM and 0.342 µM and 0.371 µM | 1.83 µM and > 6.36 µM and 4.74 µM | 0.325 µM and 0.272 µM and 0.302 µM | 4.94 µM and > 3.98 µM and 11.8 µM | 0.392 µM and 0.322 µM and 0.42 µM | 3.6 µM and 1.52 µM and 4.54 µM | 1.33 µM and 0.604 µM and 1.72 µM | 2.64 µM and 1.29 µM and 3.16 µM | 1.08 µM and 0.829 µM and 1.58 µM | 2.7 µM and > 3.73 µM and 8.18 µM | 0.347 µM and 0.224 µM and 0.232 µM | 1.91 µM and > 2.8 µM and 1.54 µM | 0.495 µM and 0.419 µM and 0.485 µM | 5.43 µM and > 7.05 µM and 7.76 µM |
| COc1ccc2nc3cc(Cl)ccc3c(N3CCN(c4ccnc(N5CCOCC5)n4)CC3)c2c1 | 7.15 µM | > 100 µM | 9.64 µM | > 100 µM | > 100 µM | > 100 µM | 6.24 µM | > 100 µM | > 100 µM | > 100 µM | 63.1 µM | > 100 µM | > 100 µM | > 100 µM | 3.28 µM | > 100 µM |
| COc1ccc2c(c1)C(=O)c1c-2c(Nc2ccc(C(C)=O)cc2)nc2ccccc12 | > 100 µM | > 100 µM | 53.5 µM | > 100 µM | 22.9 µM | 92.8 µM | > 100 µM | > 100 µM | 48.3 µM | > 100 µM | 3.96 µM | 16.2 µM | > 100 µM | > 100 µM | > 100 µM | > 100 µM |
| CN(C)CCNC(=O)Cn1cc([N+](=O)[O-])c(=O)c2ccccc21 |  | > 100 µM |  | > 100 µM |  | > 100 µM |  | > 100 µM |  | > 100 µM |  | > 100 µM |  | > 100 µM |  | > 100 µM |
| O=C(CN1CCN(c2ccc(Cl)cc2)CC1)N1CCN(c2nnc(-c3ccc(Cl)cc3)c(-c3ccc(Cl)cc3)n2)CC1 | 50.9 µM | > 100 µM | 31.5 µM | > 100 µM | 35.1 µM | > 100 µM | 5.92 µM | > 100 µM | 14.6 µM | > 100 µM | 40.9 µM | > 100 µM | 20.3 µM | > 100 µM | > 100 µM | > 100 µM |
| CN(C)c1ncnc2c1nnn2C1OC(CO)C(O)C1O (stereo unspecified) | 0.234 µM | > 100 µM | 0.141 µM | > 54 µM | 0.361 µM | 15.9 µM | 0.0635 µM | > 100 µM | 0.737 µM | 5.7 µM | 0.405 µM | > 100 µM | 0.4 µM | > 100 µM | 0.229 µM | > 100 µM |
